This is an account of results in paper PMC9230573 (Frontiers in Pharmacology, 2022).

In one assay the target is rat α3β2 nAChR (Rattus norvegicus, UniProt P04757+P12390). Briefly: cell-based.
In assay [1] the target is human CaV2.2 (α1B, β3, α2δ1) (Homo sapiens, UniProt Q00975). Briefly: cell-based.

Where a SMILES comes first, the peptide text is derived from it. Bridges are numbered along the chain shown (N, C = ends).

rat α3β2 nAChR, sequence (P04757 26-499 limits assumed): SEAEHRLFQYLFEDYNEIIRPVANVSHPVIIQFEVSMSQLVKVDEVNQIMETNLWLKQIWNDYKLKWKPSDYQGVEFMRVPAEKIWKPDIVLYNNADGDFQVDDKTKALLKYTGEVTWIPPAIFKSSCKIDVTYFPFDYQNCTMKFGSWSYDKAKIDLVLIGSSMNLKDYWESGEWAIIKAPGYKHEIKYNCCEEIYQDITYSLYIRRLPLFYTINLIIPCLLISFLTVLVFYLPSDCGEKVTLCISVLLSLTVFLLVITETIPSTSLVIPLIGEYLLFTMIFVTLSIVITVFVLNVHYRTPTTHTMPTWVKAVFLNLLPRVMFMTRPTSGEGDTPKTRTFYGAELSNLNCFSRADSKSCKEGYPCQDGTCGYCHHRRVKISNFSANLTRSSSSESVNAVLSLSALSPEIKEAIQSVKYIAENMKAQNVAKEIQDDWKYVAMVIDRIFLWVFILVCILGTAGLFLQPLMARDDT
rat α3β2 nAChR, sequence (P12390 25-500 limits assumed): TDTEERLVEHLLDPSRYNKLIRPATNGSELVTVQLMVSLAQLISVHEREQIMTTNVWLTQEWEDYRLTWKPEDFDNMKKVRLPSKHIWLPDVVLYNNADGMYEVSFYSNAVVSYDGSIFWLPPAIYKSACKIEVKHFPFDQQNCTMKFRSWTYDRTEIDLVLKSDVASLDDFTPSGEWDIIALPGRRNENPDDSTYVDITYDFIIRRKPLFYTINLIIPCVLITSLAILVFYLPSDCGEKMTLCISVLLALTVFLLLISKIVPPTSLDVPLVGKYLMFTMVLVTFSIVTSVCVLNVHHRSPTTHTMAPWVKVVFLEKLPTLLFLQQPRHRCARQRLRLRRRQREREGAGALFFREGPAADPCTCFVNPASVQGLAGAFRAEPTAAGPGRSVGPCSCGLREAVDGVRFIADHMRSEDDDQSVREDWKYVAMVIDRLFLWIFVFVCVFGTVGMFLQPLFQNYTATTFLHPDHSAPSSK
human CaV2.2 (α1B, β3, α2δ1), sequence (Q00975 whole entry, looked up): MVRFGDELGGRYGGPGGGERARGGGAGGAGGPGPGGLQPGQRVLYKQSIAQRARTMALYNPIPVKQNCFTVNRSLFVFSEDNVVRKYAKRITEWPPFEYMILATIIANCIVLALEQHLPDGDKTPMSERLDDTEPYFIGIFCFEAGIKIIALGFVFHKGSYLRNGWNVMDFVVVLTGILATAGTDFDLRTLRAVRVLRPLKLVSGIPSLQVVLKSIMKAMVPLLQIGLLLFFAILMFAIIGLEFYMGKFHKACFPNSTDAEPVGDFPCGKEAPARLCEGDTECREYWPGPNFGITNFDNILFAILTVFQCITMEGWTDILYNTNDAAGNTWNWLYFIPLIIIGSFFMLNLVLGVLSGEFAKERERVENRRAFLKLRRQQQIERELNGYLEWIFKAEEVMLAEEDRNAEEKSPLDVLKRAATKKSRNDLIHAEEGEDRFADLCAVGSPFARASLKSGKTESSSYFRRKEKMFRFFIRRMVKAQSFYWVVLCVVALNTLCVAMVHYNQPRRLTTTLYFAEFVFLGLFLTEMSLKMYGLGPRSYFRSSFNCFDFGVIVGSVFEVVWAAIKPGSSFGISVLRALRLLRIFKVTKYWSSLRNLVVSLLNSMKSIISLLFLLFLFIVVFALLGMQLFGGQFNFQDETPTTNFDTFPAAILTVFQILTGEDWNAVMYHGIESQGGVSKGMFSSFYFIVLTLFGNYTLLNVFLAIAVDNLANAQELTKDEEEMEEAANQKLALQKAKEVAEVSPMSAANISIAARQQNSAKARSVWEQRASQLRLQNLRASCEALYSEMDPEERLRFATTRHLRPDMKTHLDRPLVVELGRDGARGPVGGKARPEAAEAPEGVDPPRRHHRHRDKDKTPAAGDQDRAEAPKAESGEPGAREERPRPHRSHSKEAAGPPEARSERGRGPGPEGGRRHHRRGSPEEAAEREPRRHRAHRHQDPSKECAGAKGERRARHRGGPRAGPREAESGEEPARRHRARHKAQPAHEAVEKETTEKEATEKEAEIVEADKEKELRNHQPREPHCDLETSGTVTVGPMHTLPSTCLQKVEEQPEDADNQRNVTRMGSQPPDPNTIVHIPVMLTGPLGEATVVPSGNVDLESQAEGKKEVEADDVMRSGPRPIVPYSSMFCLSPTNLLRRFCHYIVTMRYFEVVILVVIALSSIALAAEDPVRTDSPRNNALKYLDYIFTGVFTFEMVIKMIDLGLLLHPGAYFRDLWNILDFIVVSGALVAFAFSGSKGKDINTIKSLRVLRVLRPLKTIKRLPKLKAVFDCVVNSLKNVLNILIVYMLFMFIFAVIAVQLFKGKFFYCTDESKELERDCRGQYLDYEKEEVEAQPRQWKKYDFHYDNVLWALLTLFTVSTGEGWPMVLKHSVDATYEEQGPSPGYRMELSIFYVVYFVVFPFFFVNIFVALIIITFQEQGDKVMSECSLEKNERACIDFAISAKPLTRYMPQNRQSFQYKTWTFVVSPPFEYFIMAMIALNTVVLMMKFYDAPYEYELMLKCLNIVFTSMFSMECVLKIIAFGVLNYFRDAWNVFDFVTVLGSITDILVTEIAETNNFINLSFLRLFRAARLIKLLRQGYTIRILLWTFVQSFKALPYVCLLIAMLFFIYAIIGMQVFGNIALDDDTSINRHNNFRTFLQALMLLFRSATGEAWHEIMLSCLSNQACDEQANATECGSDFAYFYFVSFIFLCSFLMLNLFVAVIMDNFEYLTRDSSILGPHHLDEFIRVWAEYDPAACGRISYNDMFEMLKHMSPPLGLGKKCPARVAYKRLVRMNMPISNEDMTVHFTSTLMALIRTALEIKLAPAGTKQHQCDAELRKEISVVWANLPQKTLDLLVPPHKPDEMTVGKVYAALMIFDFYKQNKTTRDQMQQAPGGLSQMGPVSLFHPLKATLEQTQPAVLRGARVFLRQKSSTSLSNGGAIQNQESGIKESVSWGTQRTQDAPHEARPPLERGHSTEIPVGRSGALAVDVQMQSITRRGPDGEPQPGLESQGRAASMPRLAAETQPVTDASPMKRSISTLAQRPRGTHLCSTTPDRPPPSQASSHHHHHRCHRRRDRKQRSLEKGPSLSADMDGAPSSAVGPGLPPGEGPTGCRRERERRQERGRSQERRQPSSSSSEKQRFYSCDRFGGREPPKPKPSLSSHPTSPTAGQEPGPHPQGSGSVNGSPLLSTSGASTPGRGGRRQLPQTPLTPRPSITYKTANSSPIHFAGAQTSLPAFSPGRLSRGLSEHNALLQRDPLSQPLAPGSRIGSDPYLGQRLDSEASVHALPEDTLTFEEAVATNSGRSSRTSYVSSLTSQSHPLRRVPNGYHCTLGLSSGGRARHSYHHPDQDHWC

A word on the IC50: it is the concentration that inhibits the measured activity by half. For the compound `CC[C@H](C)[C@@H]1NC(=O)[C@@H]2CCCN2C(=O)[C@@H]2CSSC[C@H](NC(=O)[C@@H](N)CC(N)=O)C(=O)N[C@@H](CSSC[C@@H](C(N)=O)NC(=O)[C@H](CC(N)=O)NC(=O)[C@H](C)NC(=O)[C@H](CCCNC(=N)N)NC(=O)[C@H](CO)NC(=O)[C@H](Cc3ccc(O)cc3)NC(=O)[C@H](CC(=O)O)NC1=O)C(=O)N[C@@H](CCSC)C(=O)N[C@@H](Cc1ccccc1)C(=O)N[C@@H](Cc1c[nH]cn1)C(=O)N[C@@H]([C@@H](C)O)C(=O)N2` [Vt1.27[F15A]] (H-NCCMFHTCPIDYSRANC-NH2; disulfide 2-8, 3-17), on rat α3β2 nAChR, the IC50 was above 10 µM and the “change of potency at the α3β2 nAChR subtype compared with Vt1.27 (in words)” value (“change of potency” for short) is on record as “a decrease in the potency”. The “inhibitory activity at CaV2.2 compared with Vt1.27 (in words; percent inhibition of IBa)” value in assay [1] is on record as “equipotent to the native peptide”.
Regarding `CC[C@H](C)[C@@H]1NC(=O)[C@H](C)NC(=O)[C@@H]2CSSC[C@H](NC(=O)[C@@H](N)CC(N)=O)C(=O)N[C@@H](CSSC[C@@H](C(N)=O)NC(=O)[C@H](CC(N)=O)NC(=O)[C@H](Cc3ccccc3)NC(=O)[C@H](CCCNC(=N)N)NC(=O)[C@H](CO)NC(=O)[C@H](Cc3ccc(O)cc3)NC(=O)[C@H](CC(=O)O)NC1=O)C(=O)N[C@@H](CCSC)C(=O)N[C@@H](Cc1ccccc1)C(=O)N1CCC[C@H]1C(=O)N[C@@H]([C@@H](C)O)C(=O)N2` [Vt1.27[H6P、P9A]] (H-NCCMFPTCAIDYSRFNC-NH2; disulfide 2-8, 3-17), on rat α3β2 nAChR, the IC50 was above 10 µM and the “change of potency” value is given as “a significant loss of potency”.
Turning to `CC[C@H](C)[C@@H]1NC(=O)[C@H](C)NC(=O)[C@@H]2CSSC[C@H](NC(=O)[C@@H](N)CC(N)=O)C(=O)N[C@@H](CSSC[C@@H](C(N)=O)NC(=O)[C@H](CC(N)=O)NC(=O)[C@H](Cc3ccccc3)NC(=O)[C@H](CCCNC(=N)N)NC(=O)[C@H](CO)NC(=O)[C@H](Cc3ccc(O)cc3)NC(=O)[C@H](CC(=O)O)NC1=O)C(=O)N[C@@H](CCSC)C(=O)N[C@@H](Cc1ccccc1)C(=O)N[C@@H](Cc1c[nH]cn1)C(=O)N[C@@H]([C@@H](C)O)C(=O)N2` [Vt1.27[P9A]] (H-NCCMFHTCAIDYSRFNC-NH2; disulfide 2-8, 3-17), on rat α3β2 nAChR, the Hillslope was -0.763, the IC50 is 9.4 µM and the “change of potency” value was “a sharp decrease in activity”. The “inhibitory activity at CaV2.2 compared with Vt1.27 (in words; percent inhibition of IBa)” value in assay [1] is recorded as “decrease in inhibitory activity”.
`CC[C@H](C)[C@@H]1NC(=O)[C@@H]2CCCN2C(=O)[C@@H]2CSSC[C@H](NC(=O)[C@@H](N)CC(N)=O)C(=O)N[C@@H](CSSC[C@@H](C(N)=O)NC(=O)[C@H](CC(N)=O)NC(=O)[C@H](Cc3ccccc3)NC(=O)[C@H](C)NC(=O)[C@H](CO)NC(=O)[C@H](Cc3ccc(O)cc3)NC(=O)[C@H](CC(=O)O)NC1=O)C(=O)N[C@@H](CCSC)C(=O)N[C@@H](Cc1ccccc1)C(=O)N[C@@H](Cc1c[nH]cn1)C(=O)N[C@@H]([C@@H](C)O)C(=O)N2` [Vt1.27[R14A]] (H-NCCMFHTCPIDYSAFNC-NH2; disulfide 2-8, 3-17): at rat α3β2 nAChR, the Hillslope is -0.871, it took 2.86 µM to reach half-maximal inhibition (IC50) and the “change of potency” value is “a decrease in the potency”.
For `CC[C@H](C)[C@@H]1NC(=O)[C@@H]2CCCN2C(=O)[C@@H]2CSSC[C@H](NC(=O)[C@@H](N)CC(N)=O)C(=O)N[C@@H](CSSC[C@@H](C(N)=O)NC(=O)[C@H](CC(N)=O)NC(=O)[C@H](Cc3ccccc3)NC(=O)[C@H](CCCNC(=N)N)NC(=O)[C@H](CO)NC(=O)[C@H](C)NC(=O)[C@H](CC(=O)O)NC1=O)C(=O)N[C@@H](CCSC)C(=O)N[C@@H](Cc1ccccc1)C(=O)N[C@@H](Cc1c[nH]cn1)C(=O)N[C@@H]([C@@H](C)O)C(=O)N2` [Vt1.27[Y12A]] (H-NCCMFHTCPIDASRFNC-NH2; disulfide 2-8, 3-17) the same measures were -1.577, 2.54 µM and “a decrease in the potency”.
